Experimental data published in patent US20100179137A1, “PYRIDONE COMPOUND” (priority 2007, published 2010).

Key:
[1] = biological target: T1, rat EP4 receptor (Rattus norvegicus, UniProt P43114); assay: Evaluation test on EP4 receptor affinity in rat ([3H]PGE2 receptor binding test); details: [3H]PGE2 0.3 nM, membrane fraction of rat EP4 expressing HEK293 cells
T1 construct: expressed in transfected cells; host or cells: HEK293 cells, transient transfection with Lipofectamine 2000; membrane fraction used
Experimental: A rat EP4 receptor cDNA was subcloned into an expression vector (pcDNA3.1-V5-His-topo, manufactured by Invitrogen Corporation) to prepare a rat EP4 expression vector. HEK293 cells were cultured in a collagen type I-treated 15 cm dish (manufactured by Asahi Techno Glass Co., Ltd.) to a confluence of 70%. An Opti-MEM culture medium at 1.2 mL/dish and a transfection reagent (Lipofectamine 2000, manufactured by Invitrogen Corporation) at 60 μL/dish were mixed, followed by being left to stand at room temperature for 5 minutes. Then, the rat EP4 receptor expression vector at 15 μg/dish was added thereto, followed by being left to stand at room temperature for 30 minutes. The liquid mixture of the transfection reagent was added into the dish, followed by culturing for 20 to 24 hours. The cell culture was carried out in a CO2 incubator (37° C., 5% CO2).
The culture medium was removed by suction, 10 mL of cooled PBS was added thereto per 15 cm dish, and the cells were scraped using a cell scraper. After washed with cooled PBS (1,200 rpm, 4° C., 5 minutes), suspended in 6 mL/dish of cooled 20 mM Tris-HCl (pH 7.4; manufactured by Nacalai Tesque Inc., 5 mM EDTA included) and homogenized using a Polytron, the homogenate was centrifuged (26,000 rpm, 20 minutes, 4° C.). The obtained precipitate was resuspended in cooled 20 mM Tris-HCl and homogenized again using a Polytron, and the homogenate was centrifuged (26,000 rpm, 20 minutes, 4° C.). The obtained precipitate was resuspended in 50 mM HEPES (pH 7.5; manufactured by Dojindo Laboratories) at 1 mL per dish, homogenized using a Polytron, and freeze-stored at −80° C. as a membrane fraction. At this time, a part thereof was used for the measurement of the protein concentration. Measurement of the protein concentration was carried out using a Protein assay stain (manufactured by Bio-Rad Laboratories) in accordance with a standard Protocol as appended in duplicate.
[^3H]PGE2 50 μL (final concentration 0.3 nM; manufactured by Perkin Elmer Co., Ltd.), 100 μL (20 μg/well) of the membrane fraction prepared from the rat EP4 expression cell, and 50 μL of a test compound were mixed in a 96-well microplate (manufactured by Sumitomo Bakelite Co., Ltd.), incubated at room temperature for 1 hour, then filtered by suction on a microplate (UniFilter-96 GF/B, manufactured by Perkin Elmer Co., Ltd.) using a cell harvester (FilterMate Harvester, manufactured by Perkin Elmer Co., Ltd.), and washed three times with 300 μL/well of a cooled assay buffer (50 mM HEPES, 10 mM MgCl2). Dilution of [^3H]PGE2 and the membrane fraction was carried out using the assay buffer, and dilution of the test compound and the unlabeled PGE2 was carried out using dimethyl sulfoxide and the assay buffer. The UniFilter-96 GF/B was treated by preliminarily washing twice with 200 μL/well of the cooled assay buffer. The UniFilter-96 GF/B after filtration was dried in a dryer overnight, 50 μL/well of a liquid scintillation cocktail (MicroScint20, manufactured by Perkin Elmer Co., Ltd.) was added thereto, and the radioactivity was then measured using a liquid scintillation counter for a microplate (TopCount, manufactured by Perkin Elmer Co., Ltd.). For measurement of the non-specific binding, an unlabeled PGE2 (final concentration 1 μM; manufactured by Cayman Chemical Company) was added. All of the measurements were carried out in duplicate, and the specific binding amount was determined by subtracting the non-specific binding amount from the total binding amount.
According to the test method as described above, the rat EP4 receptor affinity (Ki) of the compound of the present invention was measured. […] In addition, Ex means Example Compound No.

[2] = tested on: hindlimb blood flow in anesthetized rat; assay: Hindlimb blood flow increasing action in anesthetized rat; type: in vivo; details: oral, Wistar male rats
Experimental: Wistar male rats were used. The test compound was orally administered, and after 2 hours, the hindlimb blood was measured using a laser blood flow imaging apparatus (PIM II, manufactured by Integral Corporation). At 20 minutes before the measurement, 60 mg/kg of pentobarbital was intraperitoneally administered to conduct anesthesia.

T1 sequence (P43114 whole entry): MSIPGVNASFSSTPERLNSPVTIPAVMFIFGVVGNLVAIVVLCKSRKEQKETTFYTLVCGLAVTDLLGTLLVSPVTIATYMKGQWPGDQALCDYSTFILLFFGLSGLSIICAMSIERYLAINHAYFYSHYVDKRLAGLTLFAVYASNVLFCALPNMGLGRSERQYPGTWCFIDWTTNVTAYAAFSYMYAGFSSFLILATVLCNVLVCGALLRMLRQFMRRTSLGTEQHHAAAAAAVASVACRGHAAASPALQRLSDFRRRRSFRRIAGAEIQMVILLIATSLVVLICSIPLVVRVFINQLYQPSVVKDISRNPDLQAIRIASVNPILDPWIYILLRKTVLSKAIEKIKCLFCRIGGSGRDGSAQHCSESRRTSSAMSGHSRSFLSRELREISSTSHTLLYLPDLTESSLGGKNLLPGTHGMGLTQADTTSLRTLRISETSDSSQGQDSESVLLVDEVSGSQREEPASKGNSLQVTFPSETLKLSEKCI

| Compound | Ki [1] | lowest effective dose causing a blood flow increasing action of 120% or more [2] |
| --- | --- | --- |
| CCCc1cccc(OCc2c(Cl)cc(Cl)c(=O)n2CCc2ccc(C(=O)O)cc2)c1 [Example 171] | 1.1 nM |  |
| O=C(O)c1ccc(CCn2c(/C=C/c3cccc(OC(F)(F)F)c3)c(Cl)ccc2=O)cc1 [Example 126] | 4.9 nM |  |
| O=C(O)c1ccc(CCn2c(/C=C/c3cccc(OC(F)(F)F)c3)c(C3CC3)cc(Cl)c2=O)cc1 [Example 120] | 7.9 nM |  |
| CC(C)c1cccc(OCc2c(Cl)cc(Cl)c(=O)n2CCc2ccc(C(=O)O)cc2)c1 [Example 1, 4-(2-{3,5-dichloro-6-[(3-isopropylphenoxy)methyl]-2-oxopyridin-1(2H)-yl}ethyl)benzoic acid] | 2.8 nM |  |
| COc1cccc(OCc2c(Br)cc(Br)c(=O)n2CCc2ccc(C(=O)O)cc2)c1 [Example 2, 4-(2-{3,5-dibromo-6-[(3-methoxyphenoxy)methyl]-2-oxopyridin-1(2H)-yl}ethyl)benzoic acid] | 61 nM |  |
| COc1cccc(/C=C/c2c(Br)cc(Br)c(=O)n2CCCCCCC(=O)O)c1 [Example 15] | 35 nM |  |
| CCc1cccc(/C=C/c2c(Br)ccc(=O)n2CCc2ccc(C(=O)O)cc2)c1 [Example 124] | 4.4 nM |  |
| CCc1cccc(/C=C/c2c(Cl)ccc(=O)n2CCc2ccc(C(=O)O)cc2)c1 [Example 125] | 7.5 nM |  |
| COc1cccc(COc2c(Br)cc(Cl)cc2CCc2ccc(C(=O)O)cc2)c1 [4-(2-{3-bromo-5-chloro-2-[(3-methoxybenzyl)oxy]phenyl}ethyl)benzoic acid, reference compound] | 27 nM | 3 mg/kg |
| CCc1cccc(OCc2c(C3CC3)cc(Cl)c(=O)n2CCc2ccc(C(=O)O)cc2)c1 [Example 139] | 8.2 nM |  |

More lines, in order of falling Ki [1], values ahead:

| Ki [1] | Compound | lowest effective dose causing a blood flow increasing action of 120% or more [2] |
| --- | --- | --- |
| 30 nM | O=C(O)c1ccc(CCn2c(/C=C/c3ccccc3OC(F)(F)F)c(Cl)cc(Cl)c2=O)cc1 [Example 106] |  |
| 19 nM | O=C(O)c1ccc(CCn2c(CCc3ccccc3OC(F)(F)F)c(Cl)cc(Cl)c2=O)cc1 [Example 350] |  |
| 12 nM | O=C(O)c1ccc(CCn2c(CCc3cccc(OC(F)(F)F)c3)c(C3CC3)cc(Cl)c2=O)cc1 [Example 122] |  |
| 10 nM | CC(C)Oc1ccccc1OCc1c(Cl)cc(Cl)c(=O)n1CCc1ccc(C(=O)O)cc1 [Example 74] |  |
| 9.4 nM | CC(C)c1cccc(/C=C/c2c(Cl)cc(Cl)c(=O)n2CCc2ccc(C(=O)O)cc2)c1 [Example 91] |  |
| 7.1 nM | COc1cccc(/C=C/c2c(Br)cc(Br)c(=O)n2CCc2ccc(C(=O)O)cc2)c1 [Example 4, 4-(2-{3,5-dibromo-6-[(E)-2-(3-methoxyphenyl)vinyl]-2-oxopyridin-1(2H)-yl}ethyl)benzoic acid] |  |
| 6.2 nM | CCOc1ccccc1CCc1c(Cl)cc(Cl)c(=O)n1CCc1ccc(C(=O)O)cc1 [Example 90] |  |
| 1.7 nM | CCCOc1cccc(/C=C/c2c(Cl)cc(Cl)c(=O)n2CCc2ccc(C(=O)O)cc2)c1 [Example 99] |  |
